Data taken from publication PMC6918103 (Advanced Science, 2019).
“And” between values parts separate entries of the source, which are not always exact repeats. Equal values may be shown once.

Columns and labels:
[1] = Hepatic and renal function analysis; format: in vivo, female BALB/c mice; settings: mice after treatment
Text: Gastrointestinal toxicity evaluation
Nine female BALB/c mice were divided into four groups (n=3 each group) and were […]
saline (control) every day. Five days later, the mice were sacrificed and their blood was obtained for hepatic and renal function analysis. The stomach, duodenum, jejunum and ileum were taken and fixed in 4% paraformaldehyde solution for hematoxylin and eosin (H&E) staining. The histological sections were imaged using an optical microscope.
Student's t-test was used to determine significant differences between the two groups.
When p<0.05, there was a significant difference, and very significant differences between two groups were defined as p<0.01.

[2] = Simulated intestinal digestion in bile-pancreatic juice (TG prodrug remaining, MG prodrug generated); format: in vitro ADME, rat
Description: (§1) Simulated intestinal digestion
(§2) Bile-pancreatic juice was obtained from the common bile duct of anesthetized rats, which contained bile as well as pancreatic juice as previously described. Then, 20 µL of emulsion was incubated with 180 µL bile-pancreatic juice at 37°C with gentle shaking to simulate intestinal digestion. Samples (20 µL) of the incubation solution were taken at regular intervals (0, 0.08, 0.25, 0.5, 1, 2, 3 h) and added to 180 µL of ACN to analyze the concentration of the TG prodrugs and the monoglyceride derivatives of DTX (MG prodrugs) by HPLC. The solubility of prodrugs in aqueous phase were also determined. […] 20 µL of aqueous phase were collected and the concentration of the TG prodrugs and MG prodrugs were determined as above. The fraction of TG-like prodrugs and MG-like prodrugs partitioning in mix micelle phase (aqueous phase) relative to those in raw digesta were calculated to evaluate the solubility of the prodrugs. At the same time, the particle sizes of mix micelles were measured by Malvern laser particle size analyzer. […]
(§3) In order to study the stability of linkers in circulation, TG prodrugs were incubated with rat plasma supplemented with lipoprotein lipase (LPL, 10000 IU/mL) in which TG prodrugs can be hydrolyzed into MG prodrugs rapidly. […] The concentration of TG, MG prodrugs and free DTX were determined by HPLC. […]

[3] = In situ recirculating intestinal perfusion (absorption rate Ka, with or without orlistat); settings: rats
[4] = Partition into mixed micellar phase and mixed micelle size after 3 h digestion; format: in vitro ADME; settings: Sprague-Dawley, rat
Description: as §1, §2, §3

[5] = Stability of prodrugs in rat plasma supplemented with lipoprotein lipase; format: in vitro ADME; settings: 12 h
4T1 cells = assay: MTT cytotoxicity in 4T1 cells; format: cell-based
KB cells = assay: MTT cytotoxicity in KB cells; format: cell-based
Description: 4T1 cells were cultured in RPMI 1640 medium with 10% FBS and KB cells were
cultured in high glucose DMEM medium with 10% FBS. All cells were maintained in a humidified atmosphere of 5% CO 2 at 37 °C. All the cell culture plastic product were obtained from Wuxi NEST Biotechnology Co., Ltd.
In vitro cytotoxicity and drug release in tumor cell
investigated in 4T1, KB and L02 cells. In brief, cells were added to 96-wells at a density of 5000 cells per well and cultured for 24 h and then the medium was discarded.
cells were incubated with different concentrations of DTX solution or prodrug
emulsions for 48 h or 72 h and cell viability was determined by MTT assay. The cells without any treatment were utilized as control (n=3 for each group).

4T1 xenograft tumors = assay: In vivo antitumor effect (tumor volume, tumor burden, body weight, H&E of organs); set-up: species or system female BALB/c mice; settings: 4T1 tumor bearing mice; po, 20 mg kg^−1 equivalent to DTX, every alternate day for 10 days
Description: F௥௘௟ = AUCா௠௨௟௦௜௢௡ ∙Doseௌ௢௟/AUCௌ௢௟/Doseா௠௨௟௦௜௢௡
Fab = AUCp.o. ∙ Dosei.v./AUCi.v./Dosep.o.
Absorption mechanism and biodistribution of TG-mimetic prodrug
The PPa-S-S-TG was synthesized as scheme S2, the PPa-S-S-TG emulsion and its simulated intestinal digestion were implemented in accordance with the step of the TG-like DTX prodrug emulsion. Its reduction-responsibility was verified by incubation PBS with or without DTT. In brief, phosphate buffer solution (pH 7.4) (containing 30% ethanol (v/v)) with or without dithiothreitol (DTT) was used as the release media. The concentration of DTT was fixed at 10 mM. Then, 200 µL of the emulsions (PPa-S-S-TG) was incubated with 20 mL release media (reduction-sensitive or reduction-insensitive) at 37°C. At 0, 3, 12 h, 40 µL samples were taken and added to 160 µL of ACN for analysis. The content change of the PPa-S-S-TG was monitored by HPLC.
The PPa-S-S-TG and the PPa solution (10 mg/kg equivalent to PPa) were administrated to female BALB/c mice bearing the 4T1 cell line. At scheduled times the mice were sacrificed and the GITs, MLNs and tumors were taken out for fluorescence imaging by the Caliper IVIS ® Spectrum in vivo Imaging System. The intestinal tissue of PPa-S-S-TG group was then washed, fixed with 4% paraformaldehyde for 2 h, and dehydrated in 30% sucrose overnight. […]
was used as a control. […] Body weight and tumor volume were recorded every day. […]

| BUN ([1]; AVERAGE of 3 animals) [mmol/L] | CR ([1]; AVERAGE of 3 animals) [µmol/L] | Structure (SMILES) | ALT ([1]; AVERAGE of 3 animals) [U/L] | AST ([1]; AVERAGE of 3 animals) [U/L] | ALT ([1]; individual animal) | AST ([1]; individual animal) | BUN ([1]; individual animal) | CR ([1]; individual animal) | Intestinal digestion (rate) in bile-pancreatic juice [2] | Amount of MG derivative generated ([2]; Sprague-Dawley, rat, 3 h) [%] | Ka, fold increase in comparison with the DTX solution [3] [fold] | Partition of TG-like prodrug into the micellar phase [4] | DTX released [5] [%] | Cytotoxicity (IC50 values) (4T1 cells; 48 h) [µg/mL] | Cytotoxicity (IC50 values) (4T1 cells; 72 h) [µg/mL] | Cytotoxicity (IC50 values) (KB cells; 48 h) [µg/mL] | Cytotoxicity (IC50 values) (KB cells; 72 h) [µg/mL] | Tumor inhibition (4T1 xenograft tumors) |
| --- | --- | --- | --- | --- | --- | --- | --- | --- | --- | --- | --- | --- | --- | --- | --- | --- | --- | --- |
| 8.409 | 62.3087 | CC(=O)O[C@@]12CO[C@@H]1C[C@H](O)[C@@]1(C)C(=O)[C@H](O)C3=C(C)[C@@H](OC(=O)[C@H](O)[C@@H](NC(=O)OC(C)(C)C)c4ccccc4)C[C@@](O)([C@@H](OC(=O)c4ccccc4)[C@H]21)C3(C)C [DTX i.g.] | 41.6037 | 150.819 | 57.9809 U/L and 28.6275 U/L and 38.2028 U/L | 129.269 U/L and 163.103 U/L and 160.084 U/L | 8.8262 mmol/L and 7.2013 mmol/L and 9.1982 mmol/L | 51.2097 µmol/L and 66.2585 µmol/L and 69.4579 µmol/L |  |  |  |  |  |  |  |  |  |  |
|  |  | CCCCCCCCCCCCCCCC(=O)OCC(COC(=O)CCCCCCCCCCCCCCC)OC(=O)C(CCC(=O)O[C@@H](C(=O)O[C@H]1C[C@@]2(O)[C@@H](OC(=O)c3ccccc3)[C@@H]3[C@]4(OC(C)=O)CO[C@@H]4C[C@H](O)[C@@]3(C)C(=O)[C@H](O)C(=C1C)C2(C)C)[C@@H](NC(=O)OC(C)(C)C)c1ccccc1)OC(=O)C(C)(C)C (stereo partly shown) [DTX‐5C(Piv)‐TG] |  |  |  |  |  |  | poorest intestinal digestion rate | 74 | 1.15 | about 40.2% | 10 |  |  |  |  |  |
|  |  | CCCCCCCCCCCCCCCC(=O)OCC(COC(=O)CCCCCCCCCCCCCCC)OC(=O)CCCC(=O)O[C@@H](C(=O)O[C@H]1C[C@@]2(O)[C@@H](OC(=O)c3ccccc3)[C@@H]3[C@]4(OC(C)=O)CO[C@@H]4C[C@H](O)[C@@]3(C)C(=O)[C@H](O)C(=C1C)C2(C)C)[C@@H](NC(=O)OC(C)(C)C)c1ccccc1 [DTX‐5C‐TG] |  |  |  |  |  |  |  |  | 1.91 |  |  | 0.3571 | 0.1569 | 0.2265 | 0.0882 | effective tumor inhibition |
